Literature values in patent US20260183325A1, “SUSTAINED OR IMMEDIATE RELEASE ENERGY, MENTAL FOCUS, AND PHYSICAL RECOVERY NUTRITIONAL SUPPLEMENT BLEND, DIETARY SUPPLEMENT, FUNCTIONAL FOOD AND FUNCTIONAL BEVERAGE” (Matchstick Brands, LLC, priority 2023, published 2026).

Conditions: during working memory processes (Koppelstatter et al. 2008)

Cn1c(=O)c2c(ncn2C)n(C)c1=O [caffeine]
fMRI signal changes in a network of brain areas associated with executive and attentional functions: increases
